Patent publication US5504244A, “Alkylarylketo acids” (Boehringer Ingelheim Pharmaceuticals, Inc., priority 1993, dated 1996)
Read-outs that look alike come from different tables or passages of the source.

Assays:
Format in all cases: cell-based
guinea pig ileal strips [1] = assay: Modified Schultz-Dale Assay: inhibition of antigen-induced anaphylactic contraction of passively sensitized ileal strips; conditions: Cavia porcellus; for IC50: value in parentheses
Experimental: In the classic Schultz-Dale assay, guinea pigs are sensitized with a known immunogen or passively sensitized with guinea pig antiserum to the immunogen, strips of ilea are recovered, and the extent of their contraction in response to a challenge exposure to the same antigen is observed as a measure of anaphylactic response. The experiments described here follow this same procedure while exposing the ileal strips to test compound before exposure to antigen challenge (preincubation) and, in some strips, also after antigen challenge (postincubation).
The male Hartley strain guinea pigs (450-650 g) whose ilea are used in this Schultz-Dale assay are passively sensitized with IgE antiovalbumin antiserum as follows. The antiserum is developed in another group of similar guinea pigs as described in Graziano, et al., J. Immunol. 127:1067-1070 (1981) and pooled. The test animals are then each passively sensitized by subcutaneous injection of the pooled antiserum (1 ml).
About 2-7 days after sensitization, the guinea pigs are sacrificed and the terminal ilea are removed. They are cut into strips (6 cm) and positioned in tissue baths (5 ml) of Tyrode's solution with atropine (1 μg/ml) at 37° C. One end of each strip is fixed to an immobile post and the other movably mounted to a Grass Ft. 0.03 linear force displacement transducer and a Grass Model 7 polygraph. The tension is set (at 1 gram) and the tissue is allowed to equilibrate (10 minutes). Tissue viability is tested by establishing a consistent response to histamine (0.5 μg/ml). After several histamine-induced contractions, mepyramine (1 μg/ml) is added to inhibit any contractions due to the anaphylactic release of endogenous histamine.
A minimum of 3 animals are used for each compound tested and, of the 6 strips from each animal, 2 strips are incubated (preincubation) with a test compound (final concentration 75 μM), 2 with an appropriate reference standard (BW-755C at 75 μM) and 2 with saline solution (control) for a predetermined period (5 minutes). After this initial incubation period, ovalbumin (100 μg/ml) is added to each bath and the resulting anaphylactic contraction measured. The data are recorded as of tension produced by the tissue in excess of the 1 gram tension that was initially set. At the peak of the contraction, a dose of the same test compound (75 μM) is added (postincubation) to one control strip and reference standard (FPL-55712 at 1.9 μM). The strips are monitored (1 minute) and any effect on the established contraction is recorded as described above.
Two types of data are derived from the above protocol. First, pre-antigen inhibition (prechallenge) is expressed as the percent inhibition in each of the strips preincubated with test compound measured against the averaged contractions of the two control strips. Prechallenge inhibition by the reference standard is also determined in each experiment as a positive control. The reference used consistently gives 60-80% inhibition. Second, post-antigen inhibition (postchallenge) is determined by measuring the decrease in anaphylactic contraction of a control strip produced by adding either a test compound or standard at the peak of the contraction. The reference used consistently gives 70-90% inhibition. The data in each experiment, therefore, consists of 2 prechallenge and 1 postchallenge value for both test compound and standard.

[2] = test system: 5-HETE biosynthesized by glycogen-stimulated polymorphonuclear leucocytes (PMNs); assay: Hydroxyacid Profile Assay (HPA): inhibition of 5-HETE synthesis in glycogen-elicited rabbit PMNs; conditions: Oryctolagus cuniculus, Leucocyte; for inhibition at 100 µM: read-out: Percent Inhibition (100 μM); for IC50: read-out: IC50 (50% inhibition of 5-HETE synthesis)
Experimental: As previously noted 5-HETE biosynthesis serves as a marker for arachidonic acid metabolism via the 5-lipoxygenase pathway which produces (poly)hydroxyeicosatetraenoic acids and the potent bronchoconstrictor and vasoactive leukotrienes LTC4, LTD4 and LTE4.
Buffer A (8.70 g NaCl; 0.27 g KCl; 0.42 g Na2 HPO4; 0.76 g KH2 PO4; and 1.00 g dextrose per liter H2 O; pH 7.0) (0.325 ml) is introduced into each of a battery of screwtop culture tubes. Then, a solution of a compound (0.100 ml) to be assayed is dispensed into individual tubes. Assays are performed in duplicate at 100 μM and 10 μM concentrations. Control tubes receive Buffer A (0 100 ml) in lieu of compound. Next, rabbit PMNs (2×10^7 cells/tube; 4×10^7cells/ml) (0.500 ml) are added to each tube. The rabbit PMN's used are elicited with glycogen and made into a preparation substantially as described by F. Hirata. et al (1979) Proc. Natl. Acad. Sci. USA, 76, 2640-2643. The tubes are vortexed and preincubated in a shaking 37° C. water bath for 15 minutes.
Thereafter, the tubes are removed from the water bath and calcium ionophore solution (400 μg/ml A-23187; Sigma Chemical Co., St. Louis, Mo.) (0.025 ml), ^14 C-arachidonic acid (0.25 μCi in 0.025 ethanol; New England Nuclear Products, Boston, Mass.) (0.025 ml) and calcium chloride solution (CaCl2.2H2 O ); 105.8 mg/10 […]) (0.025 ml) are added in that order. The tubes are vortexed and returned to the water bath for 30 minutes. The reaction is then terminated by the addition of HCl (0.8N, 0.025 ml).
Extraction and concentration of ^14 C-labeled 5-HETE is performed as follows. First, solution containing 2 parts ethyl acetate, 3 parts CH2 Cl2 and 0.01 ml unlabeled arachidonic acid is added (5.01 ml) to each tube. The tubes are capped and briefly vortexed. The contents of each tube is poured into a polypropylene column fitted with a porous polyethylene disc and Whatman phase separation filter paper. The organic phase is collected by gravity filtration into a conical centrifuge tube, While the aqueous phase is retained in the column by the phase separation paper. Each culture tube is rinsed once with the EtOAc:CH2 Cl2 solution (1.0 ml) and the wash added to the column. The organic phase is concentrated to (0.5 ml) using a Savant Speed Vac concentrator (Savant Instruments, Inc., Hicksville, N.Y.).
After concentration of the organic phase, the tubes are vortexed and stored covered on ice. An aliquot (0.01 ml) is then removed for liquid scintillation counting in a Beckman LS7500 Liquid Scintillation Counter (Beckman Instruments Corp., Fullerton, Calif.). Based on the count, the number of μl containing 1×10^5 cpm is calculated. This volume is applied to a silica gel covered glass plate in a 10 mm streak. The remaining fluid in the tube is measured via syringe and noted.
The TLC plate is placed in a chromatography chamber containing the following solvent system: CHCl3 :MeOH:HOAc:H2 O (v/v;90: 9:1:0.65). The plate is then air dried and counted on a Berthold Linear TLC Analyzer (Berthold Instruments, Inc., Pittsburgh, Pa.) for 30 minutes per lane if a dose response curve had been run, or for 5 min per lane if drug screening had been done. The integrated area of the 5-HETE band for each compound is converted to percent of control and analyzed. The percent inhibition at 100 μM compound concentration and the concentration (μM) which produces a 50% inhibition of 5-HETE synthesis (IC50), are determined for those compounds described in Examples 1-36, and are reported in Table 1 .

guinea pig ileal strips [3] = assay: Modified Schultz-Dale Assay: inhibition of antigen-induced anaphylactic contraction of passively sensitized ileal strips; conditions: Cavia porcellus, **tested at 20 μg/ml
[4] = test system: 5-HETE biosynthesized by glycogen-stimulated polymorphonuclear leucocytes (PMNs); assay: Hydroxyacid Profile Assay (HPA): inhibition of 5-HETE synthesis in glycogen-elicited rabbit PMNs; conditions: Oryctolagus cuniculus, Leucocyte, read-out: Percent Inhibition; for inhibition at 50 µM: **tested at 50 μM
[5] = added at peak of contraction after antigen, read-out: Postchallenge IC50
[6] = preincubation before ovalbumin antigen, read-out: Prechallenge IC50
[7] = added at peak of contraction after antigen, read-out: Postchallenge mean percent inhibition
[8] = preincubation before ovalbumin antigen, read-out: Prechallenge mean percent inhibition

Compound	inhibition at 100 µM ([2]; 5-HETE synthesis) [%]	inhibition at 20 µg/mL (guinea pig ileal strips [3]; [7]) [%]	inhibition at 20 µg/mL (guinea pig ileal strips [3]; [8]) [%]	inhibition at 75 µM (guinea pig ileal strips [1]; [7]) [%]	inhibition at 75 µM (guinea pig ileal strips [1]; [8]) [%]	also measured
CCCCCCCc1ccc(C(=O)CCCCC(=O)O)cc1 [Example 1, 5-(4-n-Heptylbenzoyl)pentanoic acid]	78	68	81	–	–	IC50 (guinea pig ileal strips [1]; [5]): 48 µM; IC50 (guinea pig ileal strips [1]; [6]): 27 µM; IC50 [2]: 30 µM
CCCCCc1ccc(C(=O)CCCCC(=O)O)cc1 [Example 2, 5-(4-n-Pentylbenzoyl)pentanoic acid]	59	58	81	–	–	IC50 (guinea pig ileal strips [1]; [5]): > 75 µM; IC50 (guinea pig ileal strips [1]; [6]): 35 µM; IC50 [2]: 70 µM
CCCCCc1ccc(C(=O)CCCC(=O)O)cc1 [Example 3, 4-(4-n-Pentylbenzoyl)butanoic acid]	0	47	65	–	–	–
CCCCCc1ccc(C(=O)CCC(=O)O)cc1 [Example 4, 3-(4-n-Pentylbenzoyl)propanoic acid]	65	49	65	–	–	–
CCCCCCCCCc1ccc(C(=O)CCCCC(=O)O)cc1 [Example 9, 5-(4-n-Nonylbenzoyl)pentanoic acid]	79	2	33	–	–	–
CCCCCCCCCCc1ccc(C(=O)CCCCC(=O)O)cc1 [Example 10, 5-(4-n-Decylbenzoyl)pentanoic acid]	88	11	7	–	–	–
CCCCCCCCCCCCCCc1ccc(C(=O)CCCCC(=O)O)cc1 [Example 11, 5-(4-n-Tetradecylbenzoyl)pentanoic acid]	76	14	1	–	–	–
CCCCCCOc1ccc(C(=O)CCCCC(=O)O)cc1 [Example 12, 5-(4-n-Hexyloxybenzoyl)pentanoic acid]	75	18	70	–	–	–
CCCCCCCc1ccc(C(=O)c2ccc(C(=O)O)cc2)cc1 [Example 14, 4-(4-n-Heptylbenzoyl)benzoic acid]	–	–	–	16	44	inhibition at 50 µM [4]: 87%
CCCCCCCc1ccc(C(=O)CCCCCC(=O)O)cc1 [Example 20, 6-(4-n-Heptylbenzoyl)hexanoic acid]	–	–	–	3	57	inhibition at 50 µM [4]: 60%
Cc1ccc(C(=O)CCCCC(=O)O)cc1 [Example 21, 5-(4-Methylbenzoyl)pentanoic acid]	–	11	29	–	–	inhibition at 10 µM ([2]; at 10 μM, 5-HETE synthesis, read-out: Percent Inhibition): 0%
O=C(O)CCCC(=O)c1ccccc1 [Example 22, 4-Benzoylbutanoic acid, reference compound]	–	11	0	–	–	inhibition at 1000 µM ([4]; at 1000 μM): 0%
COc1ccc(C(=O)c2cccc(C(=O)O)c2)c(O)c1 [Example 27, 3-(2-Hydroxy-4-methoxybenzoyl)benzoic acid]	31	–	–	14	58	–
CCCCCCOc1ccc(C(=O)c2cccc(C(=O)O)c2)c(C)c1 [Example 29, 3-(4-n-Hexyloxy-2-methylbenzoyl)-benzoic acid]	88	–	–	38	86	–
Cc1ccc(C(=O)c2cccc(C(=O)O)c2)c(O)c1 [Example 30, 3-(2-Hydroxy-4-methylbenzoyl)benzoic acid]	47	–	–	6	26	–
CCCCOc1ccc(C(=O)CCCCC(=O)O)cc1 [Example 33, 5-(4-n-Butoxybenzoyl)pentanoic acid]	49	–	–	29	63	–
CCCCCCCc1ccc(C(=O)CCCC(=O)O)cc1 [Example 34, 4-(4-n-Heptylbenzoyl)butanoic acid]	76	–	–	39	79	IC50 (guinea pig ileal strips [1]; [6]): 14 µM
O=C(O)c1cccc(C(=O)c2ccc(C3CCCCC3)cc2)c1 [Example 35, 3-(4-Cyclohexylbenzoyl)benzoic acid]	63	–	–	43	66	IC50 (guinea pig ileal strips [1]; [5]): > 75 µM; IC50 (guinea pig ileal strips [1]; [6]): 38 µM
